From US20140206702A1, “IMIDAZOPYRIDINE COMPOUNDS, COMPOSITIONS AND METHODS OF USE” (Genentech, Inc., priority 2012, published 2014) come the findings set out here.

For orientation: Ki means the equilibrium dissociation constant of an inhibitor or competing ligand from its target.

The first assay has as its target T1, TYK2 kinase domain (Homo sapiens, UniProt P29597).
T1 construct: The activity of the isolated JAK1, JAK2 or TYK2 kinase domain was measured
T1 sequence (P29597 897-1176 limits assumed): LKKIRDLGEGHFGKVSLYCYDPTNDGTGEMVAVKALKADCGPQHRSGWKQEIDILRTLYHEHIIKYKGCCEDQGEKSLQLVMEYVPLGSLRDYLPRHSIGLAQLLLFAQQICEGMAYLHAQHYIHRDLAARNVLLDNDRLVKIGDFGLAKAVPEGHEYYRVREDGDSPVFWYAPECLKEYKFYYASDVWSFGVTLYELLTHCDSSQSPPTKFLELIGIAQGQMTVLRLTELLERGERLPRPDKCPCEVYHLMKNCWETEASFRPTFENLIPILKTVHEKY
Description: JAK1, JAK2 and TYK2 Inhibition Assay Protocol (Caliper LabChip, isolated kinase domain). The following applies: 1 nM purified TYK2 enzyme, 25 uM ATP, Morrison tight binding model; read-out: Ki values for TYK2 inhibition. Format: biochemical. As for the experimental part:
The activity of the isolated JAK1, JAK2 or TYK2 kinase domain was measured by monitoring phosphorylation of a peptide derived from JAK3 (Val-Ala-Leu-Val-Asp-Gly-Tyr-Phe-Arg-Leu-Thr-Thr) fluorescently labeled on the N-terminus with 5-carboxyfluorescein using the Caliper LabChip technology (Caliper Life Sciences, Hopkinton, Mass.). To determine the inhibition constants (Ki) of Examples 1-11, compounds were diluted serially in DMSO and added to 50 uL kinase reactions containing 1.5 nM JAK1, 0.2 nM purified JAK2 or 1 nM purified TYK2 enzyme, 100 mM Hepes pH7.2, 0.015% Brij-35, 1.5 uM peptide substrate, 25 uM ATP, 10 mM MgCl2, 4 mM DTT at a final DMSO concentration of 2%. Reactions were incubated at 22° C. in 384-well polypropylene microtiter plates for 30 minutes and then stopped by addition of 25 uL of an EDTA containing solution (100 mM Hepes pH 7.2, 0.015% Brij-35, 150 mM EDTA), resulting in a final EDTA concentration of 50 mM. After termination of the kinase reaction, the proportion of phosphorylated product was determined as a fraction of total peptide substrate using the Caliper LabChip 3000 according to the manufacturer's specifications. Ki values were then determined using the Morrison tight binding model. Morrison, J. F., Biochim. Biophys. Acta. 185:269-296 (1969); William, J. W. and Morrison, J. F., Meth. Enzymol., 63:437-467 (1979).
With `N#Cc1cccc(F)c1-c1nc2ccnc(Nc3cc(N)ncn3)c2[nH]1` [Example 1, 2-(4-(6-aminopyrimidin-4-ylamino)-3H-imidazo[4,5-c]pyridin-2-yl)-3-fluorobenzonitrile], the Ki amounted to 0.4 nM.
Consider `Cc1cc(Nc2nccc3nc(-c4c(C#N)cccc4C#N)[nH]c23)ncn1` [Example 7, 2-(4-(6-methylpyrimidin-4-ylamino)-3H-imidazo[4,5-c]pyridine-2-yl)isophthalonitrile], for which the Ki worked out at 2.7 nM.
The same measure, in the same setting: the same measure for `N#Cc1cccc(F)c1-c1nc2ccnc(NC(=O)C3CC3)c2[nH]1` [Example 11, N-(2-(2-cyano-6-fluorophenyl)-3H-imidazo[4,5-c]pyridin-4-yl)cyclopropanecarboxamide]: 6 nM.

The same assay, now with this note: Table 1; 1 nM purified TYK2 enzyme, 25 uM ATP, Morrison tight binding model; read-out: TYK2 Ki.
Consider `N#Cc1cccc(Cl)c1-c1nc2ccnc(Nc3cc(N)ncn3)c2[nH]1` [Example 2, 2-(4-(6-aminopyrimidin-4-ylamino)-3H-imidazo[4,5-c]pyridine-2-yl)-3-chlorobenzonitrile], for which the Ki was found to be 0.4 nM.
On the same count and under the same terms, with `Cc1cc(Nc2nccc3nc(-c4c(Cl)cccc4C#N)[nH]c23)ncn1` [Example 3, 3-chloro-2-(4-(6-methylpyrimidin-4-ylamino)-3H-imidazo[4,5-c]pyridine-2-yl)benzonitrile] the figure was 0.8 nM.
`Cc1cc(Nc2nccc3nc(-c4c(F)cccc4C#N)[nH]c23)ncn1` [Example 4, 3-fluoro-2-(4-(6-methylpyrimidin-4-ylamino)-3H-imidazo[4,5-c]pyridine-2-yl)benzonitrile]: the Ki turned out to be 1 nM.
For the molecule `N#Cc1cccc(Cl)c1-c1nc2ccnc(Nc3cc(CO)ncn3)c2[nH]1` [Example 5, 3-chloro-2-(4-(6-(hydroxymethyl)pyrimidin-4-ylamino)-3H-imidazo[4,5-c]pyridin-2-yl)benzonitrile], the Ki was found to be 0.8 nM.
Turning to `CNc1cc(Nc2nccc3nc(-c4c(Cl)cccc4C#N)[nH]c23)ncn1` [Example 6, 3-chloro-2-(4-(6-(methylamino)pyrimidin-4-ylamino)-3H-imidazo[4,5-c]pyridin-2-yl)benzonitrile], the Ki worked out at 0.6 nM.
For the molecule `CNc1cc(Nc2nccc3nc(-c4c(F)cccc4C#N)[nH]c23)ncn1` [Example 8, 3-fluoro-2-(4-(6-(methylamino)pyrimidin-4-ylamino)-3H-imidazo[4,5-c]pyridin-2-yl)benzonitrile], the Ki was 0.7 nM.
Still for that read-out and setting: the same measure for `N#Cc1cccc(F)c1-c1nc2ccnc(Nc3cc(CO)ncn3)c2[nH]1` [Example 9, 3-fluoro-2-(4-(6-(hydroxymethyl)pyrimidin-4-ylamino)-3H-imidazo[4,5-c]pyridin-2-yl)benzonitrile]: 2 nM; for `N#Cc1cccc(Cl)c1-c1nc2ccnc(NC(=O)C3CC3)c2[nH]1` [Example 10, N-(2-(2-chloro-6-cyanophenyl)-3H-imidazo[4,5-c]pyridin-4-yl)cyclopropanecarboxamide]: 1.3 nM.
